Data as given in paper PMC4503439, “Dose-Independent ADME Properties and Tentative Identification of Metabolites of α-Mangostin from Garcinia mangostana in Mice by Automated Microsampling and UPLC-MS/MS Methods” (PLoS ONE, 2015).

experiment: Tentative identification of metabolites from α-MG by UPLC-MS/MS; format: in vivo; settings: mice after intravenous and oral α-MG; S9 fractions after 30-min incubation
Source text: Probable metabolites of α-MG were identified using the simultaneous full scan MS, MRM and MS/MS modes in a Waters UPLC-XEVO TQ system (Waters Corporation, Milford, USA) to confirm the structures of any metabolites. […] Structural elucidation of the metabolites was based on the fragmentation patterns of parent ion from the MS/MS mode at a collision energy of 10 to 20 eV generating daughter ions. The mass transitions for α-MG was m/z 411.21 → 354.85 (collision energy of 20 eV and collision cell exit potential of 25 eV, respectively). The unknown masses were further analyzed in MS/MS (daughter scan) mode with the electrospray ionization interface used to generate positive and negative ions at a capillary voltage of 3.0 kV, source temperature of 350°C and desolvation gas temperature of 650°C. The MRM methods for identification of possible metabolites generated by phase I and/or II reactions were included.
These compounds were separated on a reversed-phase C18 column (XSELECT CSH, 2.1 mm × 100 mm i.d., 1.7-μm particle size; Waters, Ireland) with a flow rate of 0.35 mL/min. The mobile phase composition was started at 95: 5 (v/v) of distilled water containing 0.1% formic acid (A) and acetonitrile (B) and gradually changed to 35: 65 (v/v) for 30 min, and then switched back to 95: 5 (v/v) for 40 min.

SMILES	Source (samples in which detected)
COc1c(O)cc2oc3cc(O)c(CC4OC4(C)C)c(O)c3c(=O)c2c1CC=C(C)C (stereo not drawn) [M13]	liver, small intestine, feces
COc1c(O)c(O)c2oc3cc(O)c(CC=C(C)C)c(O)c3c(=O)c2c1CC=C(C)C [M11]	liver, small intestine, feces
COc1c(O)cc2oc3cc(O)c4c(c3c(=O)c2c1CC=C(C)C)OC(C)(C)C=C4 [M8]	urine, feces, liver, small intestine
COc1c(O)cc2oc3cc4c(c(O)c3c(=O)c2c1CC=C(C)C)C=CC(C)(C)O4 [M7]	urine, feces, liver, small intestine
COc1c(O)cc2oc3c(O)c(O)c(CC=C(C)C)c(O)c3c(=O)c2c1CC=C(C)C [M10]	liver, small intestine, feces
COc1c(O)cc2oc3cc(O)c(CC=C(C)C)c(O)c3c(=O)c2c1CC1OC1(C)C (stereo not drawn) [M12]	liver, small intestine, feces
